From US11510928B2, “Use of mirtazapine in the treatment of inflammatory disorders, autoimmune disease and PBC” (UTI Limited Partnership, priority 2017, dated 2022)

Tests used:
[1] = test system: hepatic cytokine and chemokine milieu; assay: Hepatic and plasma cytokine/chemokine levels after mirtazapine treatment (Luminex, LEGENDplex); assay type: in vivo, mouse
Procedure: Male 8-10 week old C57BL/6 mice (Jackson Labs, Bar Harbor, Me.) were used. All procedures were approved by the University of Calgary Animal Care Committee (protocol numbers AC14-0129 and AC14-0128) and were performed in accordance with the guidelines of the Canadian Council on Animal Care. […] Mirtazapine was suspended in 1% aqueous solution of Tween 80, whereas the control group received 1% aqueous solution of Tween 80. Blood and liver samples were collected 5 hours post-mirtazapine treatment (or 16 hours post-Con A treatment). The detailed experimental protocols, lists of antibodies and reagents used, flow cytometry gating, and immune cell phenotyping strategies, are described herein. To delineate the effect of mirtazapine treatment on hepatic cytokine/chemokine expression a Luminex® assay was used using methods as previously described. […] A panel of mouse cytokines/chemokines were simultaneously measured in liver homogenate samples using a mouse MILLIPLEX kit (Millipore, USA) according to the manufacturer's protocol. The multiplexing analysis was performed using the Luminex 100 system (Luminex®, USA; Eve Technologies Corporation, Calgary, Canada). Total protein concentrations in liver homogenates were quantified using a BCA Protein Assay kit (Pierce, USA) according to manufacturers instructions. Results were expressed as pg of analyte per mg of protein. Additional plasma and hepatic measurements were made using a bead-based LEGENDplex immunoassay. Plasma and hepatic levels of CXCL10/IP-10 and CXCL9/Mig were measured using BioLegend's LEGENDplex™ bead-based immunoassays in a 96-well v-bottom microplate, according to the manufacturer's protocol. At the end of the assay, all samples were transferred from the plate to FACS tubes and read on a flow cytometer (Attune® Acoustic Focusing Cytometer). After data acquisition, flow cytometry standard (FCS) files were analyzed using Biolegend's LEGENDplex data analysis software to calculate the concentrations of individual chemokines, and results were expressed as pg of analyte per mg of protein. Alternatively, the flow cytometry standard (FCS) files were analyzed using FlowJo software (Treestar, San Carlos, Calif.).

[2] = test system: patients in the UK THIN database; assay: Retrospective THIN cohort study: incidence of autoimmune diseases with mirtazapine exposure (Example 7); assay type: in vivo, human; settings: exposed vs matched (2:1) non-exposed cohort
Excerpt: Patients who were prescribed mirtazapine. 90 day ([…]) identified and compared to a matched patient cohort (2:1) not exposed to mirtazapine (n=372,822). Out models were adjusted for depression, use of other antidepressants, comorbidity status, smoking and alcohol consumption.

[3] = test system: patients registered in THIN database; assay: THIN cohort study 1995-2017: incidence of IMIDs according to mirtazapine exposure (Example 9); assay type: in vivo, human; settings: THIN 1995-2017
Excerpt: Data source: THIN is a primary care patient oriented electronic medical record (EMR) database. It is one of the largest medical databases in the UK, consisting of prospectively gathered electronic medical records from over 11.1 million patients (˜3.7 million active patients), the equivalent to 75.6 million patient years, from more than 560 general practices in the UK, covering 6.2% of the UK population. All data elements are fully anonymised and validated by Cegedim Strategic Data (CSD)-Medical Research UK. […] Data from participant general practitioners across the UK are exported to THIN administrators and the database is updated every 3 months.
Study cohort: All adult patients (18 years) registered in THIN database starting from Jan. 1, 1995. Since mirtazapine was approved and available in the UK, Europe, and US markets by 1996, all patients who were prescribed mirtazapine with a prescription duration longer than 30 days, were defined as incident cases. We assessed the hazard of developing each studied IMID (CD, UC, psoriasis, MS or RA) separately. […] Similarly, in the same MS cohort, if a patient develops another IMID of interest prior to a diagnosis of MS, the index date of outcome will be the date of MS diagnosis. In all of our cohorts, we will follow patients from study start date until an incident diagnosis of IMID of interest, death, loss to follow-up or end of follow-up.
Inclusion and exclusion criteria: Patients should not have any interruption of registration or leave of practice. Cases with mirtazapine prescription duration of less than 30 days or unknown duration were excluded from the study.
Exposure variable of interest: Our primary exposure variable was mirtazapine. We used Read codes to identify mirtazapine usage, duration, dose, and start date. Our primary outcome was the incident diagnosis of one of the following conditions: Crohn's disease, multiple sclerosis, psoriasis, rheumatoid arthritis, and ulcerative colitis during study follow-up period (1995-2017).
a) Demographic covariates: Pre-specified covariates include age at diagnosis; sex; and cigarette smoking status is defined either (1) current smoker, coded for smoking within 12 months of the index date (condition diagnosis date); (2) ex-smoker, coded for smoking before but not within 12 months of the index date; or (3) never smoked, coded either as a lifetime non-smoker or not recorded as a smoker; alcohol consumption classified as current, former, never consumed alcohol, or unknown status at diagnosis; body mass index (weight in kg and height in m2); and socioeconomic status measured by the Mosaic scale which is a consumer classification scale that captures demographics, lifestyles, and behaviours (10 classes).
b) Depression: Read codes were used to identify patients with major depressive disorder (MDD). Read codes associated with only symptoms of depression, bipolar disorder, mania or hypomania were excluded. MDD was defined as (1) never diagnosed with MDD; (2) past MDD diagnosis prior to 90 days from index date; or (3) current MDD diagnosis if a diagnosis was made within 90 days before or after the index date.
c) Comorbidities: We used the Quality and Outcomes Framework (QOF) Read codes to assess for the following comorbidities: asthma, atrial fibrillation, cancer, chronic kidney disease (stages 3-5), chronic obstructive pulmonary disease, coronary heart disease, dementia, diabetes, epilepsy, heart failure, hypertension, and hypothyroid. […]

[4] = pilot study, 4 hrs post-treatment, 20 mg/kg (FIG. 13)

`CN1CCN2c3ncccc3Cc3ccccc3C2C1` (stereo not shown) [Mirtazapine] was tested, and the “Plasma levels of CXCL10/IP-10 and CXCL9/MIG vs vehicle” value ([1]; 5 hours post-treatment) was “significantly increased”, the “Increase in hepatic CXCL9 level vs vehicle” value ([1]; 5 hours post-treatment, ip) was roughly 7 fold and the “Increase in hepatic CXCL10 level vs vehicle” value ([1]; 5 hours post-treatment, ip) was roughly 120 fold. The “Increase in hepatic GM-CSF level vs vehicle” value ([1]; 5 hours post-treatment, ip) was roughly 1.5 fold, the “Increase in hepatic IFNγ level vs vehicle” value ([1]; 5 hours post-treatment, ip) was roughly 8 fold and the “Increase in hepatic IL-1β level vs vehicle” value ([1]; 5 hours post-treatment, ip) was roughly 1.5 fold. The “Increase in hepatic IL-4 level vs vehicle” value ([1]; 5 hours post-treatment, ip) was roughly 30 fold, the “Increase in hepatic IL-5 level vs vehicle” value ([1]; 5 hours post-treatment, ip) was roughly 2 fold and the “Increase in hepatic IL-6 level vs vehicle” value ([1]; 5 hours post-treatment, ip) was roughly 1.5 fold. For the same compound, the “Increase in hepatic IL-12 level vs vehicle” value ([1]; 5 hours post-treatment, ip) was roughly 1.5 fold, the “Increase in hepatic IL-12p40 level vs vehicle” value ([1]; 5 hours post-treatment, ip) was roughly 1.5 fold and the “Increase in hepatic IL-12p70 level vs vehicle” value ([1]; 5 hours post-treatment, ip) was roughly 1.5 fold. The “Increase in hepatic IL-15 level vs vehicle” value ([1]; 5 hours post-treatment, ip) was roughly 1.5 fold, the “Increase in hepatic IL-17 level vs vehicle” value ([1]; 5 hours post-treatment, ip) was roughly 1.5 fold and the “Increase in hepatic TNFα level vs vehicle” value ([1]; 5 hours post-treatment, ip) was roughly 1.5 fold. The “Hepatic levels of IL-2, IL-10, IL-13, IL-7, IL-9, M-CSF, G-CSF, LIF, IL-3, CCL3/MIP-1α, CCL4/MIP-1β, CXCL2/MIP-2, CCL11/Eotaxin-1, CCL5/RANTES” value ([1]; 5 hours post-treatment, data not shown) was “unaltered”, the “Hepatic levels of the chemokines CXCL10/IP-10 and CXCL9/MIG vs vehicle” value ([1]; 5 hours post-treatment, in words) was “striking increases” and the “Hepatic levels of CCL2/MCP-1, CCL4/MIP-1β, CCL5/RANTES, CCL11/eotaxin-1, CCL3/MIP-1a” value ([1]; after mirtazapine treatment) was “no significant changes”. For the same compound, the “Hepatic IL-10 levels” value [1, 4] was “unchanged”, the “Increase in hepatic IL-4 levels” value [1, 4] was 50 fold and the “Adjusted Incidence Rate Ratio (adjusted IRR), Multiple Sclerosis” value [2] was 0.80. The “Adjusted Incidence Rate Ratio (adjusted IRR), Psoriasis” value [2] was 0.93, the “Adjusted Incidence Rate Ratio (adjusted IRR), Rheumatoid Arthritis” value [2] was 0.55 and the “Adjusted incidence rate ratio, Multiple sclerosis” value ([3]; N = 371, P = 0.006) was 0.80 (0.71-0.88). For the same compound, the “Adjusted incidence rate ratio, Crohn's Disease” value ([3]; N = 490, P = 0.89) was 1.00 (0.93-1.07), the “Adjusted incidence rate ratio, Ulcerative Colitis” value ([3]; N = 1375, P = 0.002) was 0.84 (0.81-0.88) and the “Adjusted incidence rate ratio, R. arthritis” value ([3]; N = 1792, P < 0.001) was 0.55 (0.51-0.60). The “Adjusted incidence rate ratio, Psoriasis” value ([3]; N = 5181, P = 0.002) was 0.93 (0.88-0.98).
